Series [1] has as its system HCV replicon RNA (GenBank Accession No. AJ242654). Briefly: HCV Replicon Assay (replicon RNA reduction and/or Fluc reporter signal). Type of series: cell-based, Hepatitis C virus. Conditions: Hepatitis C virus, 72 h, replicon-containing cells cultured with test compound for up to 3 days. The procedure, abridged: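 IC50 values mostly reflect the drop in replicon RNA, though Fluc reporter signal may also be used. Compound incubated with cells carrying the bicistronic replicon for as long as 3 days; interferon served as positive control.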
(A replicon is a self-replicating genome or part of one, used to study replication in cells.)

Bounds are passed on as bounds.

With `Cc1ncc2c(C#N)c(-c3ccc(S(=O)(=O)N[C@H](C)C(F)(F)F)cn3)n(C3CCC3)c2n1` [Cpd 46, 6-(5-cyano-7-cyclobutyl-2-methyl-7H-pyrrolo[2,3-d]pyrimidin-6-yl)-N-[(2R)-1,1,1-trifluoropropan-2-yl]pyridine-3-sulfonamide], the melting point was 166 to 168 °C. In series [1], this compound yielded a half-maximal inhibitory concentration (IC50) of less than 500 nM.

`CC1(NS(=O)(=O)c2cnc(-c3c(C#N)c4cc(C5CC5)cnc4n3C3CCC3)nc2)CC1` [Cpd 129, 2-(3-cyano-1-cyclobutyl-5-cyclopropyl-1H-pyrrolo[2,3-b]pyridin-2-yl)-N-(1-methylcyclopropyl)pyrimidine-5-sulfonamide]: the melting point fell in the range of 161 to 169 °C. Further, the IC50 in series [1] is less than 500 nM.

For `C[C@H](NS(=O)(=O)c1ccc(-c2c(C#N)c3cc(C4CC4)cnc3n2C2CCC2)nc1)C(F)(F)F` [Cpd 117, 6-(3-cyano-1-cyclobutyl-5-cyclopropyl-1H-pyrrolo[2,3-b]pyridin-2-yl)-N-[(2S)-1,1,1-trifluoropropan-2-yl]pyridine-3-sulfonamide], the melting point is 136 to 144 °C. This compound also returned an IC50 in series [1] of less than 500 nM.

Turning to `C[C@H](NS(=O)(=O)c1ccc(-c2c(C#N)c3cnc(Cl)cc3n2C2CCCC2)cc1)C(F)(F)F` [Cpd 87, 4-(6-chloro-3-cyano-1-cyclopentyl-1H-pyrrolo[3,2-c]pyridin-2-yl)-N-[(2S)-1,1,1-trifluoropropan-2-yl]benzenesulfonamide], the melting point is 238 to 240 °C. In series [1], the IC50 is less than 500 nM.

With `C[C@@H](NS(=O)(=O)c1ccc(-c2c(C#N)c3cc(F)cnc3n2CC2CC2)nc1)C(F)(F)F` [Cpd 60, 6-[3-cyano-1-(cyclopropylmethyl)-5-fluoro-1H-pyrrolo[2,3-b]pyridin-2-yl]-N-[(2R)-1,1,1-trifluoropropan-2-yl]pyridine-3-sulfonamide], the melting point was in the range of 185 to 187 °C. Also, the 50% inhibitory concentration (IC50) in series [1] is less than 500 nM.

Compound `Cc1cnc2c(C#N)c(-c3ncc(S(=O)(=O)N[C@@H](C)C(F)(F)F)cn3)n(C3CCCC3)c2c1` [Cpd 179, 2-(3-cyano-1-cyclopentyl-6-methyl-1H-pyrrolo[3,2-b]pyridin-2-yl)-N-[(2S)-1,1,1-trifluoropropan-2-yl]pyrimidine-5-sulfonamide] registered a melting point of 262 to 264 °C. Also, the concentration for half-maximal inhibition (IC50) in series [1] was less than 500 nM.

For the compound `C[C@H](NS(=O)(=O)c1ccc(-c2c(C#N)c3ncc(Cl)cc3n2C2CCCCC2)cc1)C(F)(F)F` [Cpd 287, 4-(6-chloro-3-cyano-1-cyclohexyl-1H-pyrrolo[3,2-b]pyridin-2-yl)-N-[(2S)-1,1,1-trifluoropropan-2-yl]benzenesulfonamide], the melting point lay within 300 to 305 °C. In series [1], this compound showed an IC50 of 500 to 2000 nM.

On to `CCc1cc2c(C#N)c(-c3ccc(NS(=O)(=O)C(C)C)cc3)n(C3CCC3)c2cn1` [Cpd 220, N-[4-(3-cyano-1-cyclobutyl-5-ethyl-1H-pyrrolo[2,3-c]pyridin-2-yl)phenyl]propane-2-sulfonamide], for which the melting point is 160 to 165 °C. The compound also gave an IC50 in series [1] of less than 500 nM.

On to `NC(=O)c1c(-c2ccc(S(=O)(=O)NC3(C(F)(F)F)CC3)cc2)n(C2CCC2)c2ncc(C3CC3)cc12` [Cpd 373, 1-cyclobutyl-5-cyclopropyl-2-(4-{[1-(trifluoromethyl)cyclopropyl]sulfamoyl}phenyl)-1H-pyrrolo[2,3-b]pyridine-3-carboxamide], for which the melting point lay in the range of 224 to 229 °C. Besides, the IC50 in series [1] was less than 500 nM.

On to `Cc1cnc2c(c1)c(C#N)c(-c1ccc(S(=O)(=O)N[C@@H](C)C(F)(F)F)cn1)n2-c1cncs1` [Cpd 430, 6-[3-cyano-5-methyl-1-(1,3-thiazol-5-yl)-1H-pyrrolo[2,3-b]pyridin-2-yl]-N-[(2S)-1,1,1-trifluoropropan-2-yl]pyridine-3-sulfonamide], for which the melting point was in the range of 176 to 178 °C. Also, in series [1], the IC50 is less than 500 nM.

Turning to `C[C@H](NS(=O)(=O)c1ccc(-c2c(C#N)c3cc(C(F)(F)F)cnc3n2C2CCCCC2)cc1)C(F)(F)F` [Cpd 416, 4-[3-cyano-1-cyclohexyl-5-(trifluoromethyl)-1H-pyrrolo[2,3-b]pyridin-2-yl]-N-[(2S)-1,1,1-trifluoropropan-2-yl]benzenesulfonamide], the melting point was 190 to 192 °C. This compound yielded an IC50 in series [1] of less than 500 nM.

`CC(C)(NS(=O)(=O)c1ccc(-c2c(C(N)=O)c3cc(Cl)cnc3n2C2CCC2)cc1)C(F)(F)F` [Cpd 329, 5-chloro-1-cyclobutyl-2-{4-[(1,1,1-trifluoro-2-methylpropan-2-yl)sulfamoyl]phenyl}-1H-pyrrolo[2,3-b]pyridine-3-carboxamide] showed a melting point of 263 to 265 °C. This compound gave an IC50 in series [1] of less than 500 nM.

On to `C[C@H](NS(=O)(=O)c1ccc(-c2c(C#N)c3cnc(Cl)cc3n2C2CCCC2)nc1)C(F)(F)F` [Cpd 80, 6-(6-chloro-3-cyano-1-cyclopentyl-1H-pyrrolo[3,2-c]pyridin-2-yl)-N-[(2S)-1,1,1-trifluoropropan-2-yl]pyridine-3-sulfonamide], for which the melting point was in the range of 235 to 237 °C. Also, in series [1], the IC50 is less than 500 nM.

Regarding `CC(C)NS(=O)(=O)c1cnc(-c2c(C#N)c3cc(F)cnc3n2C2CCC2)nc1` [Cpd 37, 2-(3-cyano-1-cyclobutyl-5-fluoro-1H-pyrrolo[2,3-b]pyridin-2-yl)-N-(propan-2-yl)pyrimidine-5-sulfonamide], the melting point fell in the range of 207 to 209 °C. The 50% inhibitory concentration (IC50) in series [1] is less than 500 nM.

The compound `CSc1cnc2c(c1)c(C#N)c(-c1ccc(S(=O)(=O)NC3(C(F)(F)F)CC3)cc1)n2C1CCC1` [Cpd 364, 4-[3-cyano-1-cyclobutyl-5-(methylsulfanyl)-1H-pyrrolo[2,3-b]pyridin-2-yl]-N-[1-(trifluoromethyl)cyclopropyl]benzenesulfonamide] displayed a melting point of 197 to 199 °C. The compound also registered a half-maximal inhibitory concentration (IC50) in series [1] of less than 500 nM.

With `CSc1cnc2c(c1)c(C(N)=O)c(-c1ccc(S(=O)(=O)NC(C)(C)C(F)(F)F)cc1)n2C1CCC1` [Cpd 391, 1-cyclobutyl-5-(methylsulfanyl)-2-{4-[(1,1,1-trifluoro-2-methylpropan-2-yl)sulfamoyl]phenyl}-1H-pyrrolo[2,3-b]pyridine-3-carboxamide], the melting point fell in the range of 204 to 205 °C. In series [1], the half-maximal inhibitory concentration (IC50) was less than 500 nM.

Compound `CCCn1c(-c2ccc(S(=O)(=O)N[C@@H](C)C(F)(F)F)cc2)c(C#N)c2cc(C)cnc21` [Cpd 485, 4-(3-cyano-5-methyl-1-propyl-1H-pyrrolo[2,3-b]pyridin-2-yl)-N-[(2S)-1,1,1-trifluoropropan-2-yl]benzenesulfonamide] came in with a melting point of 235 to 240 °C. In addition, in series [1], the half-inhibitory concentration (IC50) is less than 500 nM.

`C[C@H](NS(=O)(=O)c1ccc(-c2c(C#N)c3cc(C4CC4)cnc3n2-c2cnccn2)nc1)C(F)(F)F` [Cpd 344, 6-[3-cyano-5-cyclopropyl-1-(pyrazin-2-yl)-1H-pyrrolo[2,3-b]pyridin-2-yl]-N-[(2S)-1,1,1-trifluoropropan-2-yl]pyridine-3-sulfonamide] came in with a melting point of 219 to 221 °C. Moreover, in series [1], the half-inhibitory concentration (IC50) was less than 500 nM.

Turning to `Cc1cc2c(C#N)c(-c3ccc(S(=O)(=O)N[C@H](C)C(F)(F)F)cn3)n(C3CCC3)c2cn1` [Cpd 166, 6-(3-cyano-1-cyclobutyl-5-methyl-1H-pyrrolo[2,3-c]pyridin-2-yl)-N-[(2R)-1,1,1-trifluoropropan-2-yl]pyridine-3-sulfonamide], the melting point is 195 to 198 °C. In addition, the IC50 in series [1] was less than 500 nM.

The compound `Cc1ccc2c(C#N)c(-c3ccc(S(=O)(=O)NC(C)(C)C)cn3)n(C3CCC3)c2n1` [Cpd 142, N-tert-butyl-6-(3-cyano-1-cyclobutyl-6-methyl-1H-pyrrolo[2,3-b]pyridin-2-yl)pyridine-3-sulfonamide] displayed a melting point of 181 to 187 °C. Also, the IC50 in series [1] was less than 500 nM.

Take `Cc1cnc2c(C#N)c(-c3ncc(S(=O)(=O)NC(CF)CF)cn3)n(C3CCC3)c2c1` [Cpd 213, 2-(3-cyano-1-cyclobutyl-6-methyl-1H-pyrrolo[3,2-b]pyridin-2-yl)-N-(1,3-difluoropropan-2-yl)pyrimidine-5-sulfonamide]: the melting point lay within 269 to 271 °C. In addition, the IC50 in series [1] is less than 500 nM.

`CC(C)NS(=O)(=O)c1cnc(-c2c(C#N)c3cnc(Cl)cc3n2C2CCCC2)nc1` [Cpd 85, 2-(6-chloro-3-cyano-1-cyclopentyl-1H-pyrrolo[3,2-c]pyridin-2-yl)-N-(propan-2-yl)pyrimidine-5-sulfonamide] came in with a melting point of 249 to 250 °C. This compound registered a half-maximal inhibitory concentration (IC50) in series [1] of less than 500 nM.

The compound `CC(C)(C)NS(=O)(=O)c1ccc(-c2c(C#N)c3cc(C(F)(F)F)cnc3n2-c2ccccc2)cc1` [Cpd 337, N-tert-butyl-4-[3-cyano-1-phenyl-5-(trifluoromethyl)-1H-pyrrolo[2,3-b]pyridin-2-yl]benzenesulfonamide] came in with a melting point of 206 to 208 °C. This compound came in with a 50% inhibitory concentration (IC50) in series [1] of 500 to 2000 nM.

In turn, `N#Cc1c(-c2ccc(S(=O)(=O)NC3(C(F)(F)F)CC3)cn2)n(C2CCCC2)c2cc(Cl)ncc12` [Cpd 83, 6-(6-chloro-3-cyano-1-cyclopentyl-1H-pyrrolo[3,2-c]pyridin-2-yl)-N-[1-(trifluoromethyl)cyclopropyl]pyridine-3-sulfonamide] had a melting point of 225 to 227 °C. In series [1], this compound yielded a concentration for half-maximal inhibition (IC50) of less than 500 nM.

For `Cc1cnc2c(C#N)c(-c3ccc(S(=O)(=O)NC(C)(C)C)cn3)n(C3CCCC3)c2c1` [Cpd 175, N-tert-butyl-6-(3-cyano-1-cyclopentyl-6-methyl-1H-pyrrolo[3,2-b]pyridin-2-yl)pyridine-3-sulfonamide], the melting point is 267 to 269 °C. The 50% inhibitory concentration (IC50) in series [1] is less than 500 nM.

The compound `Cc1cnc2c(c1)c(C#N)c(-c1ccc(S(=O)(=O)N[C@@H](C)C(F)(F)F)cn1)n2-c1ccc(F)cn1` [Cpd 432, 6-[3-cyano-1-(5-fluoropyridin-2-yl)-5-methyl-1H-pyrrolo[2,3-b]pyridin-2-yl]-N-[(2S)-1,1,1-trifluoropropan-2-yl]pyridine-3-sulfonamide] displayed a melting point of 199 to 200 °C. Besides, in series [1], the IC50 was less than 500 nM.

As a reminder, the melting point is the temperature of the solid-liquid transition. The term IC50 denotes the concentration that inhibits the measured activity by half. Higher therefore signals lower potency.

These data come from US9593108B2, “Compounds and methods for antiviral treatment” (PTC Therapeutics, Inc., priority 2009, dated 2017).
